In EP0129932A1, “N,N,N',N'-tetra (hydroxyethyl)-5-acetylamino-2,4,6-triiodoisophtaloyldiglycinamide, a process for the preparation of said compound and an X-ray contrast agent containing said compound” (DAGRA N.V., priority 1983, dated 1985) one finds LD50 and solubility data, which are given here for one compound.

≈ marks a conversion by molar mass, not a printed value.

Usually solubility stands for the dissolved amount per volume that the medium holds. Low readings indicate a poorly soluble substance, high ones a readily soluble substance.

In one data set the test system is mice. In words: intravenous toxicity in mice. It is filed as in vivo. The conditions noted are these: solution of 300 mg I/ml, injection rate 20 g 1/kg/min. The procedure:
The intravenous toxicity was determined in mice, after administration of a solution of 300 mg I/ml at an injection rate of 20 g 1/kg/min.

The nature of a further data set: physchem. The conditions noted are these: water.

For `CC(=O)Nc1c(I)c(C(=O)NCC(=O)N(CCO)CCO)c(I)c(C(=O)NCC(=O)N(CCO)CCO)c1I` [The compound], in the data set on mice, the LD50 amounted to 15.4 g I/kg. In “physchem”, this compound came in with a solubility of roughly 3000 mg/mL (≈ 3370 mM).
